{"source": "patent US6356845B1", "about": "“Crystallization and structure determination of Staphylococcus aureus UDP-N-acetylenolpyruvylglucosamine reductase (S. aureus MurB)” (priority 1999, dated 2002)", "origin": "cited, not measured here", "molecular_target": "T1, S. aureus MurB (Staphylococcus aureus, UniProt P61431)", "T1 construct": "His6; made in house; host or cells: E. coli K12S (F' lacIq), plasmid pQE-10 murB obtained from Human Genome Sciences", "details": "read-out: Km for EP-UDPGlcNAc with S. aureus MurB; substrate Km; S. Swaney, personal communication"}
{"compound": "C=C(O[C@H]1[C@H](O)[C@@H](CO)O[C@H](OP(=O)(O)OP(=O)(O)OC[C@H]2O[C@@H](n3ccc(=O)[nH]c3=O)[C@H](O)[C@@H]2O)[C@@H]1NC(C)=O)C(=O)O", "note": "[EP-UDPGlcNAc, Uridine diphospho-N-acetylglucosamine enolpyruvate]", "values": [{"measurement": "Km", "value": 15, "unit": "µM"}]}
